Results as given in patent publication US8604009B2, “(20S)-2-methylene-19-nor-22-dimethyl-1α,25-dihydroxyvitamin D3 and (20R)-2-methylene-19-nor-22-dimethyl-1α,25-hydroxyvitamin D3” (Wisconsin Alumni Research Foundation, priority 2010, dated 2013).
“Also recorded” adds a separate entry of the source. Read-outs that look alike come from different tables or passages of the source.

Legend:
[1] = tested on: 24-hydroxylase (24-OHase) gene promoter in ROS 17/2.8 (bone) cells; assay: In vitro transcription assay (24-hydroxylase promoter luciferase reporter); assay type: cell-based
Experimental: Transcription activity was measured in ROS 17/2.8 (bone) cells that were stably transfected with a 24-hydroxylase (24-Ohase) gene promoter upstream of a luciferase reporter gene (Arbour et al., Analytical Biochem. (1998) 255(1):148-154). Cells were given a range of doses. Sixteen hours after dosing the cells were harvested and luciferase activities were measured using a luminometer. RLU=relative luciferase units.

[2] = target: T1, full-length recombinant rat vitamin D receptor (Rattus norvegicus, UniProt P13053); assay: Competitive vitamin D receptor binding; settings: for binding to the nuclear vitamin D receptor compared with 1,25(OH)2D3: in words
T1 construct: Full-length recombinant rat receptor was expressed in E. coli BL21(DE3) Codon Plus RIL cells; histidine tag (C); made in house; host or cells: E. coli BL21(DE3) Codon Plus RIL
T1 sequence (P13053 1-423): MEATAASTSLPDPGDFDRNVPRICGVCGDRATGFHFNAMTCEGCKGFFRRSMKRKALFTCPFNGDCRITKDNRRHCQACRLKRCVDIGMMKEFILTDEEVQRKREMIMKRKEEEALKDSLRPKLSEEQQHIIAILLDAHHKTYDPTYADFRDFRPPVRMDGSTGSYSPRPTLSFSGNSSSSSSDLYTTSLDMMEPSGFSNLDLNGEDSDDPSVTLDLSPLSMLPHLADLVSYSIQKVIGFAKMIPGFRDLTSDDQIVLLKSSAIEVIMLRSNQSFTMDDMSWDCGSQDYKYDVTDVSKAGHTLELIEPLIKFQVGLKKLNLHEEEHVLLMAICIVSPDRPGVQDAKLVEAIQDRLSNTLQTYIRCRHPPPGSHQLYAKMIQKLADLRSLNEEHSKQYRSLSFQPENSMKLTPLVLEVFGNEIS
Experimental: The first system was a nickel affinity resin that utilizes the C-terminal histidine tag on this protein. The protein that was eluted from this resin was further purified using ion exchange chromatography (S-Sepharose Fast Flow). Aliquots of the purified protein were quick frozen in liquid nitrogen and stored at −80° C. until use. For use in binding assays, the protein was diluted in TEDK50 (50 mM Tris, 1.5 mM EDTA, pH 7.4, 5 mM DTT, 150 mM KCl) with 0.1% Chaps detergent. The receptor protein and ligand concentration was optimized such that no more than 20% of the added radiolabeled ligand was bound to the receptor.
Radiolabeled and unlabeled ligands were added to 100 μL of the diluted protein at a final ethanol concentration of ≦10%, mixed and incubated overnight on ice to reach binding equilibrium. The following day, 100 μL of hydroxylapatite slurry (50%) was added to each tube and mixed at 10-minute intervals for 30 minutes. The hydroxylapaptite was collected by centrifugation and then washed three times with Tris-EDTA buffer (50 mM Tris, 1.5 mM EDTA, pH 7.4) containing 0.5% Titron X-100. After the final wash, the pellets were transferred to scintillation vials containing 4 mL of Biosafe II scintillation cocktail, mixed and placed in a scintillation counter. Total binding was determined from the tubes containing only radiolabeled ligand.

[3] = tested on: intestinal calcium transport; assay: Intestinal calcium transport (everted gut sac); assay type: in vivo, rat; settings: for Net Intestinal Ca2+ Transport (S/M): S/M = serosal Ca2+/mucosal Ca2+, at 780 pM dosage; for intestinal calcium transport activity compared with 1,25(OH)2D3: rat gut, in words
Experimental: (§1) Male, weanling Sprague-Dawley rats were placed on Diet 11 (0.47% Ca) diet+AEK oil for one week followed by Diet 11 (0.02% Ca)+AEK oil for 3 weeks. The rats were then switched to a diet containing 0.47% Ca for one week followed by two weeks on a diet containing 0.02% Ca. Dose administration began during the last week on 0.02% calcium diet. Four consecutive intraperitoneal doses were given approximately 24 hours apart. Twenty-four hours after the last dose, blood was collected from the severed neck and the concentration of serum calcium determined as a measure of bone calcium mobilization. The first 10 cm of the intestine was also collected for intestinal calcium transport analysis using the everted gut sac method.

[4] = tested on: bone calcium mobilization; assay: Bone calcium mobilization (serum calcium); assay type: in vivo, rat; settings: at 780 pM dosage
Experimental: as §1

HL-60 cells = assay: HL-60 differentiation (nitro blue tetrazolium reduction); assay type: cell-based, human
Experimental: The study drugs were dissolved in ethanol and the concentrations determined using UV spectrophotometry. Serial dilutions were prepared so that a range of drug concentrations could be tested without changing the final concentration of ethanol (≦0.2%) present in the cell cultures.
Human promyelocytic leukemia (HL60) cells were grown in RPMI-1640 medium containing 10% fetal bovine serum. The cells were incubated at 37° C. in the presence of 5% CO2.
HL60 cells were plated at 1.2×10^5 cells/mL. Eighteen hours after plating, cells in duplicate were treated with drug. Four days later, the cells were harvested and a nitro blue tetrazolium reduction assay was performed (Collins et al., J. Exp. Med. (1979) 149:969-974). The percentage of differentiated cells was determined by counting a total of 200 cells and recording the number that contained intracellular black-blue formazan deposits.

[5] = target: T1, full-length recombinant rat vitamin D receptor; settings: data from U.S. Pat. No. 5,843,928 and J. Med. Chem. 1998, 41, 4662; read-out: Competitive VDR Binding (Ki); cited from earlier work
[6] = competition with 3H-1,25(OH)2D3, read-out: Ki, binding to the recombinant vitamin D receptor

| Compound | Ki [2, 6] [nM] | binding to the nuclear vitamin D receptor compared with 1,25(OH)2D3 [2] | Net Intestinal Ca2+ Transport (S/M) [3] [S/M] | intestinal calcium transport activity compared with 1,25(OH)2D3 [3] | Net Bone Ca2+ Mobilization [4] [mg/dL] | Ki [5] [nM] | further results |
| --- | --- | --- | --- | --- | --- | --- | --- |
| C=C1C(O)CC(=CC=C2CCCC3(C)C2CCC3C(C)C(C)(C)CCC(C)(C)O)CC1O [MET-1, (20S)-2-methylene-19-nor-22-dimethyl-1α,25-dihydroxyvitamin D3] | 0.04 | approximately equally effective as 1,25-(OH)2D3; also recorded: same affinity as 1,25(OH)2D3 | 2.3 | noticeably less active than 1,25-(OH)2D3; also recorded: less potent than 1,25(OH)2D3 | 0.4 | – | EC50 ([1]; 16 h, ROS 17/2.8 cells, 16 hours, read-out: concentration stimulating 24-OHase gene expression in bone cells): 0.03 nM; EC50 (HL-60 cells; Homo sapiens, HL-60, 96 h, HL-60 cells, 4 days, read-out: concentration inducing the differentiation of HL-60 cells in culture): 0.7 nM; EC50 (HL-60 cells; present compounds, read-out: HL-60 Differentiation (EC50)): 0.7 nM |
| C=C1C(O)CC(=CC=C2CCCC3(C)C2CCC3C(C)CCCC(C)(C)O)CC1O [2MD (20S), 2-methylene-19-nor-1α,25-dihydroxyvitamin D3] | – | – | – | – | – | 0.1 | – |
| C=C1C(O)CC(=CC=C2CCCC3(C)C2CCC3C(C)C(C)(C)CCC(C)(C)O)CC1O [MET-2, (20R)-2-methylene-19-nor-22-dimethyl-1α,25-dihydroxyvitamin D3] | 0.05 | equally effective as 1,25-(OH)2D3; also recorded: same affinity as 1,25(OH)2D3 | 1.2 | noticeably less active than 1,25-(OH)2D3; also recorded: less potent than 1,25(OH)2D3 | 0.2 | – | EC50 ([1]; ROS 17/2.8 cells, 16 hours, read-out: concentration stimulating 24-OHase gene expression in bone cells): 0.03 nM; EC50 ([1]; present compounds, read-out: 24-OHase Transcription (EC50)): 0.6 nM; potency in 24-hydroxylase gene transcription, times more potent than 1,25(OH)2D3 ([1]; relative to 1,25(OH)2D3): about three; potency in stimulating 24-OHase gene expression, times less potent than 1,25(OH)2D3 ([1]; relative to 1,25(OH)2D3): about 3 times; Ki ([2]; present compounds, read-out: Competitive VDR Binding (Ki)): 0.05 nM; melting point: 154 °C; EC50 (HL-60 cells; HL-60 cells, 4 days, read-out: concentration inducing the differentiation of HL-60 cells in culture): 0.7 nM; EC50 (HL-60 cells; Homo sapiens, HL-60, present compounds, read-out: HL-60 Differentiation (EC50)): 1 nM |
| C=C1C(O)CC(=CC=C2CCCC3(C)C2CCC3C(C)CCCC(C)(C)O)CC1O [2MD (20R)] | – | – | – | – | – | 0.12 | – |
